Results as given in paper PMC7098970, “Neurosteroids as Selective Inhibitors of Glycine Receptor Activity: Structure-Activity Relationship Study on Endogenous Androstanes and Androstenes” (Frontiers in Molecular Neuroscience, 2020).
“Also recorded” adds a separate entry of the source. Like-named read-outs stand apart in the source and are kept apart here.

How the values were obtained:
glycine receptor (GlyR) = assay: Glycine-induced chloride current (IGly), whole-cell patch-clamp in isolated pyramidal neurons of the rat hippocampus; type: cell-based; details: for τdes/τdes control of IGly: 0.1 μM of steroid; for τdes/τdes control of IGly / Ipeak/Ipeak control of IGly: mean ± SEM, normalized; for Ipeak/Ipeak control of IGly: 10 μM of steroid; for Ipeak max (maximum inhibition attainable) of IGly / Ipeak Hill coefficient of IGly: peak amplitude
Description: (§1) All experiments were conducted per the requirements of the Ministry of Public Health of the Russian Federation and were consistent with the EU directive for Use of Experimental Animals of the European Community. […] The cells were isolated from transverse hippocampal slices as described in detail elsewhere ([Vorobjev, 1991]). Briefly, the slices (200–500 μm) of Wistar rats (11–14 days of age) hippocampus or cerebellum were incubated at room temperature for at least 2 h in a solution containing the following components (in mM): 124 NaCl, 3 KCl, 2 CaCl2, 2 MgSO4, 25 NaHCO3, 1.3 NaH2PO4, 10 D-glucose, pH 7.4. The saline was continuously stirred and bubbled with carbogen (95% 0_2 + 5% CO2). Single pyramidal neurons from the hippocampal CA3 area or Purkinje cells from sagittal slices of the cerebellum were isolated by a vibrating fused glass pipette with a spherical tip.
(§2) Isolated neurons were patch clamped and then lifted into the outflow of the control bath solution. […] The substances were applied through glass capillary, 0.1 mm in diameter, which could be rapidly displaced laterally ([Vorobjev et al., 1996]). A fast perfusion technique allows a complete exchange of external solution surrounding a neuron within 20 ms. […] Transmembrane currents were recorded using a conventional patch-clamp technique in the whole-cell configuration. […] The solution in the recording pipette contained the following (in mM): 40 CsF, 100 CsCl, 0.5 CaCl2, 5 EGTA, 3 MgCl2, 4 NaATP, 5 HEPES, pH 7.3. The composition of the extracellular solution was as follows (in mM): 140 NaCl, 3 KCl, 3 CaCl2, 3 MgCl2, 10 D-glucose, 10 HEPES hemisodium, and pH 7.4. Recording of the currents was performed using EPC7 patch-clamp amplifier (HEKA Electronik, Germany). The holding potential was maintained at −70 mV. Transmembrane currents were filtered at 3 kHz, stored and analyzed with IBM-PC computer, using homemade software.
(§3) Statistical analysis was performed with the help of Prism Graphpad software. All comparisons were made with ANOVA-test using Dunnett’s multiple comparison test and Student’s unpaired t-test at a significance level of p = 0.05. N = 5–8 cells from 3 to 4 animals for every concentration. […] The meanings of asterisks (probability levels) in figures is the following: ^∗P < 0.05, ^∗∗P < 0.01. The IC50 values for steroids inhibition of the IGly and IGABA were determined using the equation: Y = 1 – [max/(1 + (IC50/C)^n)], where max is the maximum inhibition attainable, C is the concentration of steroid, IC50 is the half-maximal inhibitory concentration and n is the slope factor (Hill coefficient).
(§4) First, the ability of steroids to affect the holding current at voltage-clamp regime was tested. […] The experiments with IGly were conducted on rat hippocampal neurons, and experiments with IGABA were conducted on rat cerebellar Purkinje cells.

GABAA receptors = target: T1, GABAA receptors (Rattus norvegicus, UniProt P18508+P62813+P63138); type: cell-based
T1 construct: Single pyramidal neurons from the hippocampal CA3 area or Purkinje cells from sagittal slices of the cerebellum were isolated; endogenous in cells; host or cells: acutely isolated Purkinje cells from cerebellar slices of Wistar rats, 11-14 days old
Description: as §1, §2, §3, §4

[1] = Hill fit, time constant of desensitization, 100 μM glycine
[2] = read-out: Ipeak IC50 of IGly, inhibition of peak amplitude, 100 μM glycine
[3] = read-out: τdes IC50 of IGly, acceleration of desensitization (decrease in τdes), 100 μM glycine
[4] = time constant of desensitization, 100 μM glycine
[5] = footnote b: did not modulate IGABA up to the concentration of 10 μM, 5 μM GABA

T1 sequence (P62813 28-455): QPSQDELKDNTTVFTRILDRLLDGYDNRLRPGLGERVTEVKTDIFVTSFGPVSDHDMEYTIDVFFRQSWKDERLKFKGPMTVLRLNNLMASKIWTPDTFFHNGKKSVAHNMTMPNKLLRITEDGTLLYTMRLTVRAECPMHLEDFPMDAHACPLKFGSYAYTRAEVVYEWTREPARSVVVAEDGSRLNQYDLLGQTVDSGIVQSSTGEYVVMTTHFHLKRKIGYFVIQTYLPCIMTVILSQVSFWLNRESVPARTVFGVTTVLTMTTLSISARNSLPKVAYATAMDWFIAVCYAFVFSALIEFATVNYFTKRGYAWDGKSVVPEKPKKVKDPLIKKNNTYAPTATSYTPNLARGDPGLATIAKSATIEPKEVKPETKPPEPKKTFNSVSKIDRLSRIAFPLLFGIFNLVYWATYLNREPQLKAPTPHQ
T1 sequence (P63138 25-474 limits assumed): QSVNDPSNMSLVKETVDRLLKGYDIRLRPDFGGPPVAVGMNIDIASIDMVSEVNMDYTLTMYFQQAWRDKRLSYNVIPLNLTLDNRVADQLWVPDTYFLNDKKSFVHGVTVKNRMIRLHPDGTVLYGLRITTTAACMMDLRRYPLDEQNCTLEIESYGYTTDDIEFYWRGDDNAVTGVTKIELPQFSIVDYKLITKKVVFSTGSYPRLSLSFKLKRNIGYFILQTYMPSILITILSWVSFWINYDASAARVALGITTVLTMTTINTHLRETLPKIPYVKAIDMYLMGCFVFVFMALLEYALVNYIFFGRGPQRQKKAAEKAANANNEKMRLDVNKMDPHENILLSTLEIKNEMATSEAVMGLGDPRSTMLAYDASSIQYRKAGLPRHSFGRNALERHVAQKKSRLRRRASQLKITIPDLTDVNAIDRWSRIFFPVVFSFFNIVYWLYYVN
T1 sequence (P18508 39-466): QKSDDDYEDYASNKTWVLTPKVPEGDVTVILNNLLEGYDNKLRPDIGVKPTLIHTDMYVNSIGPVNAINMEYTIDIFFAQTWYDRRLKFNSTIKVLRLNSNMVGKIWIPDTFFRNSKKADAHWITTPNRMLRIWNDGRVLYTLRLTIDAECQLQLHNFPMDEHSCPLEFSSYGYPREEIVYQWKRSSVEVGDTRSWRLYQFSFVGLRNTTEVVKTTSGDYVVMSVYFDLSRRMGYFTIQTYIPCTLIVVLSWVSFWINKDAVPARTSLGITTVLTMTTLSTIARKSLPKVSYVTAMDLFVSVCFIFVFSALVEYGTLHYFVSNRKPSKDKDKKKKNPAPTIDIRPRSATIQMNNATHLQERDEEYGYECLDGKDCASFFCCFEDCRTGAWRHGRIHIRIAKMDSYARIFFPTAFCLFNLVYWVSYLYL

Row | Structure (SMILES) | τdes/τdes control of IGly (glycine receptor (GlyR); 100 μM glycine) | τdes IGly (effect on time constant of desensitization) (glycine receptor (GlyR); 10 μM compound, 100 μM glycine) | Ipeak/Ipeak control of IGly (glycine receptor (GlyR); 100 μM glycine) | Ipeak max (maximum inhibition attainable) of IGly (glycine receptor (GlyR); Hill fit, 100 μM glycine) | τdes max (maximum inhibition attainable) of IGly (glycine receptor (GlyR); [1]) | Ipeak Hill coefficient of IGly (glycine receptor (GlyR); 100 μM glycine) | IC50 (glycine receptor (GlyR); [2]) | IC50 (glycine receptor (GlyR); [3]) | τdes Hill coefficient of IGly (glycine receptor (GlyR); [4]) | τdes/τdes control of IGABA (GABAA receptors; 10 μM of steroid, 5 μM GABA) | Ipeak/Ipeak control of IGABA (GABAA receptors; 50 μM of steroid, 5 μM GABA) | τdes Hill coefficient of IGly (glycine receptor (GlyR)) | τdes IGly (effect on time constant of desensitization) (glycine receptor (GlyR)) | τdes max (maximum inhibition attainable) of IGly (glycine receptor (GlyR)) | IC50 (glycine receptor (GlyR); read-out: τdes IC50 of IGly) | Ipeak/Ipeak control of IGABA (GABAA receptors) | τdes IGABA (effect in words) (GABAA receptors) | τdes/τdes control of IGABA (GABAA receptors) | other results
1 | C[C@]12CC[C@H]3[C@@H](CCC4=CC(=O)CC[C@@]43C)[C@@H]1CC[C@@H]2O [Compound 1, 17β-Hydroxyandrost-4-en-3-one] | 0.68 ± 0.05 | −67% | 0.75 ± 0.03 | 0.58 ± 0.10 | 0.72 ± 0.08 | 1.1 ± 0.32 | 19.3 ± 2.3 µM | 0.13 ± 0.06 µM | 0.58 ± 0.20 | 0.99 ± 0.02 | 0.86 ± 0.03 | – | – | – | – | – | – | – | Effect on IGly in words (glycine receptor (GlyR); 0.1 and 1 μM compound): accelerated desensitization without effect on the peak amplitude; Effect on IGly in words (glycine receptor (GlyR); 10 and 100 μM compound): acceleration of desensitization and a decrease in peak amplitude; Acceleration of decay (desensitization) of IGABA (GABAA receptors; 50 μM compound, 5 μM GABA): 23–45%; Decrease in the peak amplitude of IGABA (GABAA receptors; 50 μM compound, 5 μM GABA): 14–25%; τdes IGABA (effect in words) (GABAA receptors; [5]): ^bNo effect
2 | C[C@]12CCC(=O)C=C1CC[C@@H]1[C@@H]2CC[C@]2(C)C(=O)CC[C@@H]12 [Compound 2, Androst-4-en-3,17-dione] | 0.73 ± 0.06 | −84% | 0.82 ± 0.02 | 0.55 ± 0.09 | 0.97 ± 0.10 | 1.1 ± 0.36 | 18.1 ± 2.9 µM | 0.49 ± 0.16 µM | 0.60 ± 0.11 | 0.98 ± 0.02 | 0.77 ± 0.02 | – | – | – | – | – | – | – | Acceleration of decay (desensitization) of IGABA (GABAA receptors; 50 μM compound, 5 μM GABA): 23–45%; Decrease in the peak amplitude of IGABA (GABAA receptors; 50 μM compound, 5 μM GABA): 14–25%; τdes IGABA (effect in words) (GABAA receptors; [5]): ^bNo effect
3 | C[C@]12CCC(=O)C[C@@H]1CC[C@@H]1[C@@H]2CC[C@]2(C)[C@@H](O)CC[C@@H]12 [Compound 3, 17β-Hydroxy-5α-androstan-3-one] | 0.72 ± 0.06 | – | 0.78 ± 0.03 | 0.61 ± 0.08 | – | 0.86 ± 0.15 | 20.1 ± 2.8 µM | – | – | – | – | 0.58 ± 0.13 | −82% | 0.97 ± 0.11 | 0.42 ± 0.14 µM | 0.95 ± 0.03 | ^cNo effect | 0.98 ± 0.02 | Modulation of IGABA (peak amplitude or rate of decay/desensitization) (GABAA receptors): did not modulate; also recorded: remained inactive; also recorded: did not change
4 | C[C@]12CC[C@H](O)C[C@@H]1CC[C@@H]1[C@@H]2CC[C@]2(C)C(=O)CC[C@@H]12 [Compound 4, 3β-Hydroxy-5α-androstan-17-one] | 0.66 ± 0.05 | – | 0.75 ± 0.03 | 0.64 ± 0.08 | – | 0.97 ± 0.21 | 17.1 ± 2.3 µM | – | – | – | – | 0.59 ± 0.16 | −64% | 0.70 ± 0.07 | 0.12 ± 0.05 µM | 0.75 ± 0.03 | – | 0.80 ± 0.03 | Acceleration of decay (desensitization) of IGABA (GABAA receptors): 23–45%; Decrease in the peak amplitude of IGABA (GABAA receptors): 14–25%; τdes IGABA (effect on time constant of desensitization) (GABAA receptors): −20%
5 | C[C@]12CC[C@H]3[C@@H](CCC4=CC(=O)CC[C@@]43C)[C@@H]1CC[C@H]2O [Compound 5, 17α-Hydroxyandrost-4-en-3-one] | 0.66 ± 0.04 | −72% | 0.80 ± 0.04 | 0.46 ± 0.09 | 0.81 ± 0.11 | 1.2 ± 0.34 | 17 ± 2.9 µM | 0.22 ± 0.08 µM | 0.51 ± 0.15 | 0.97 ± 0.03 | 1.12 ± 0.08 | – | – | – | – | – | – | – | τdes IGABA (effect in words) (GABAA receptors; footnote c: did not modulate IGABA up to the concentration of 50 μM, 5 μM GABA): ^cNo effect; Modulation of IGABA (peak amplitude or rate of decay/desensitization) (GABAA receptors; up to 50 μM compound, 5 μM GABA): did not modulate; also recorded: remained inactive; also recorded: did not change
6 | C[C@]12CCC(=O)C[C@@H]1CC[C@@H]1[C@@H]2CC[C@]2(C)C(=O)CC[C@@H]12 [Compound 6, 5α-Androstane-3,17-dione] | 0.65 ± 0.03 | −72% | 0.76 ± 0.03 | 0.51 ± 0.05 | 0.86 ± 0.10 | 1.2 ± 0.35 | 16.3 ± 2.4 µM | 0.26 ± 0.09 µM | 0.48 ± 0.10 | – | – | – | – | – | – | 0.92 ± 0.04 | ^cNo effect | 0.99 ± 0.02 | Modulation of IGABA (peak amplitude or rate of decay/desensitization) (GABAA receptors): did not modulate; also recorded: remained inactive; also recorded: did not change
7 | C[C@]12CC[C@H]3[C@@H](CC=C4C[C@@H](O)CC[C@@]43C)[C@@H]1CC[C@@H]2O [Compound 7, 3β,17β-Androst-5-ene-3,17-diol] | 0.72 ± 0.03 | – | 0.75 ± 0.02 | 0.52 ± 0.09 | – | 0.71 ± 0.16 | 16.2 ± 2.3 µM | – | – | – | – | 0.56 ± 0.13 | −70% | 0.81 ± 0.09 | 0.29 ± 0.12 µM | 0.77 ± 0.06 | ^bNo effect | 0.98 ± 0.02 | Acceleration of decay (desensitization) of IGABA (GABAA receptors): 23–45%; Decrease in the peak amplitude of IGABA (GABAA receptors): 14–25%
8 | CN1CCc2cc3c(cc2[C@H]1[C@@H]1OC(=O)c2c1ccc1c2OCO1)OCO3 [bicuculline, reference compound] | – | – | – | – | – | – | – | – | – | – | – | – | – | – | – | – | – | – | Block of IGABA (GABAA receptors): reversibly blocked
